According to patent publication US12497396B2, “Nitrogen-containing heterocyclic derivatives, method therefor and application therefor as inhibitors of KRAS G12C for the treatment of cancers” (SHANGHAI HANSOH BIOMEDICAL CO., LTD., priority 2019, dated 2025):
Like-named read-outs stand apart in the source and are kept apart here.

Key:
[1] = biological target: T1, CYP2C9 (Homo sapiens, UniProt P11712); assay: CYP enzyme single point inhibition, human liver microsomes, 2C9; format: in vitro ADME; conditions: single point method
T1 construct: from tissue; host or cells: human liver microsomes
T1 sequence (P11712 whole entry): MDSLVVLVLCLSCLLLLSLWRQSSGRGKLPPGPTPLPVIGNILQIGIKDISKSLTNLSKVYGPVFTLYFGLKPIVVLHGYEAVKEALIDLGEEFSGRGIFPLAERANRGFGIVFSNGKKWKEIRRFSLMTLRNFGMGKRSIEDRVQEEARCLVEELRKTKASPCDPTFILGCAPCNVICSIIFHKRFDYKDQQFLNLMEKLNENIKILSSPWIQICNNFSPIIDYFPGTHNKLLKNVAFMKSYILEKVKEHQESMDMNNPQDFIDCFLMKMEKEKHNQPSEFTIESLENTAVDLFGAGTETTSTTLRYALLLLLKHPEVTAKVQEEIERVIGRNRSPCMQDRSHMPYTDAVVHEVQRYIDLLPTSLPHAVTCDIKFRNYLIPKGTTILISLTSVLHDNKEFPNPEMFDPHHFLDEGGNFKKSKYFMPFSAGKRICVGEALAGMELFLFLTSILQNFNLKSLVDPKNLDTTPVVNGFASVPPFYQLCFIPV
Protocol: (§1) Using human liver microsomal incubation system, the inhibition of CYP450 enzyme subtypes by compounds was rapidly predicted by single point method.
(§2) 2.5 mM NADPH: 100 mM phosphate buffer was added to 4.165 mg of NADPH (reduced nicotinamide adenine dinucleotide phosphate) to 2 mL. 0.25 mg/mL microsome: 4 mL of 100 mM phosphate buffer was added to 50 μL of 20 mg/mL microsome and mixed well.
(§3) The embodiment compound to be tested was weighed and diluted to 10 mM with DMSO and then diluted to 100 μM with 100 mM phosphate buffer.
(§4) • 1. In a 96-well plate, 40 μL of liver microsomes, 10 μL of substrate, 10 μL of compound to be tested were pre-incubated for 3 min. • 2. 40 μL of NADPH was added. • 3. 300 μL of acetonitrile termination solution containing internal standard was added at 20 min. • 4. Centrifugal injection.

[2] = biological target: T2, CYP3A4 (Homo sapiens, UniProt P08684); assay: CYP enzyme single point inhibition, human liver microsomes, 3A4; format: in vitro ADME; conditions: single point method
T2 construct: from tissue; host or cells: human liver microsomes
T2 sequence (P08684 whole entry): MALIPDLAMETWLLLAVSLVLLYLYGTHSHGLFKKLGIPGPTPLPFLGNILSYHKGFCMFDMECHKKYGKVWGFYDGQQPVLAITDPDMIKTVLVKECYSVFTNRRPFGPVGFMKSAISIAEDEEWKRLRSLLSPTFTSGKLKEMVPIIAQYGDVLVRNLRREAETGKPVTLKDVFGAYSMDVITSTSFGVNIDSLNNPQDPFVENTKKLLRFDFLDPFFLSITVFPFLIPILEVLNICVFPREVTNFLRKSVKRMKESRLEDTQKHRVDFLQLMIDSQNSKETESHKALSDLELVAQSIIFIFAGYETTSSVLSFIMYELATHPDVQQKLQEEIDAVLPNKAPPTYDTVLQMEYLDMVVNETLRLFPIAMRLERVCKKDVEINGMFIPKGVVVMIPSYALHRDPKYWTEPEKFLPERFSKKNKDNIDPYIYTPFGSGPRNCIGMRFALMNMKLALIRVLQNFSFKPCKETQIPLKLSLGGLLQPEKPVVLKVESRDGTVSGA
Protocol: as §1, §2, §3, §4

[3] = Plasma stability, rat plasma; format: in vitro ADME; conditions: for Residual rate (%) 0 min / Residual rate (%) 15 min / Residual rate (%) 30 min / Residual rate (%) 60 min / Residual rate (%) 120 min: rat plasma, 37° C.; for half-life at 0.5 μM: rat, plasma
Protocol: (§5) Animal or human whole blood was collected, then the blood was put into a test tube containing anticoagulant, centrifuged at 3500 rpm for 10 min, and the upper layer of pale yellow plasma was collected. • 2), 10 μM of tested compound (m/M/V=C)
(§6) The compound was weighed, the stock solution was prepared with DMSO and the working solution was prepared with 100 mM phosphate buffer. • 3), 10 μM of positive control (1) Propantheline (Propantheline Mr=449.4 Da)
(§7) • 1) 285 μL of plasma and 15 μL of 10 μM compound (tested compound) were added in turn in a 96-well plate, and incubated at 37° C. • 2) 40 μL was taken out at 0, 15, 30, 60, 90, 120 min, respectively, and 160 μL of acetonitrile termination solution containing internal standard was added. • 3) After centrifugation (3500 rpm, 10 min), 50 μL of supernatant was taken out, and then diluted with 50 μL DDH2O and injected to LC-MS/MS.
(§8) • Instrument: Shimadzu LC-20 AD • Chromatographic column: phenomenex Gemiu® C18 (50*4.6 mm, 5 μM particle size); • mobile phase: A: acetonitrile, B: 0.1% formic acid solution […], 2.0-2.1 min: 90% A→5% A; flow rate: 0.8 mL/min; running time: 5.0 min; injection volume: 5 μL.
(§9) • Instrument: API4000 Liquid Chromatography-Mass Spectrometry, AB, USA; • the ion source was electrospray ionization source (ESI); • the temperature of dry gas (N2) was 500° C.; • electrospray voltage was 5500V; • the detection method was positive ion detection; • the scanning mode was selective response monitoring (MRM). • the scanning time was 0.1 s.

[4] = Plasma stability, dog plasma; format: in vitro ADME; conditions: for Residual rate (%) 0 min / Residual rate (%) 15 min / Residual rate (%) 30 min / Residual rate (%) 60 min / Residual rate (%) 120 min: dog plasma, 37° C.; for half-life at 0.5 μM: dog, plasma
Protocol: as §5, §6, §7, §8, §9

[5] = Pharmacokinetics in MiaPaca 2 tumor-bearing mice (plasma, tumor); format: in vivo; conditions: female, mouse, po, 6 mg/kg p.o.
Protocol: The pharmacokinetic behavior of embodiment compound 165 and AMG-510 compound, administered orally at a dose of 6 mg/kg, in mice (plasma, tumor tissue and intestine) was studied using MiaPaca 2 tumor-bearing mice as test animals.
24 MiaPaca 2 tumor-bearing mice, females. 3 for each time point (0 h, 1 h, 2 h, 4 h, 6 h, 8 h, 16 h, 24 h). Shanghai xipuer-bikai Laboratory Animal Co., Ltd, Animal Production License No. (SCXK (Shanghai) 2018-0006.
Embodiment compound 165-1 and compound AMG-510 were weighed and dissolved in the solution, the mixture was shaken well, and ultrasound was performed for 15 minutes to obtain a uniform suspension with a concentration of 0.6 mg/mL.
MiaPaca 2 tumor-bearing mice were administered at a dose of 6 mg/kg in a volume of 10 mL/kg, respectively, based on body weight p.o. after fasting (animals were not administered at point 0 h).
Before and after administration, mice were sacrificed with CO2, 0.5 mL blood was collected from the heart and placed in EDTA-2K tube, centrifuged at 4° C. […] The duodenum, ileum and colon tissues were cut with scissors, the contents were removed and cleaned twice with PBS, after absorbing water with absorbent paper, they were weighed, placed in a 2 mL centrifuge tube and stored at −80° C.

[6] = 3A4-M, read-out: IC50 (nM) 3A4-M
[7] = 3A4-T, read-out: IC50 (nM) 3A4-T

C=CC(=O)N1C[C@H](C)N(c2nc(=O)n(-c3c(SC)ccnc3C(C)C)c3nc(-c4c(O)cccc4F)c(F)cc23)C[C@H]1C (single isomer, unassigned) [Embodiment 114-1]
IC50 [1]: 84.6 nM
IC50 [2, 6]: 19 nM
IC50 [2, 7]: > 100 nM

C=CC(=O)N1C[C@H](C)N(c2nc(=O)n(-c3c(SC)ccnc3C(C)C)c3nc(-c4c(O)cccc4F)c(Cl)cc23)C[C@H]1C (single isomer, unassigned) [Embodiment 166-1]
Residual rate (%) 0 min [3]: 100.00%
Residual rate (%) 15 min [3]: 93.20%
Residual rate (%) 30 min [3]: 98.32%
Residual rate (%) 60 min [3]: 99.08%
Residual rate (%) 120 min [3]: 96.46%
half-life at 0.5 μM [3]: 108 h
Residual rate (%) 0 min [4]: 100.00%
Residual rate (%) 15 min [4]: 99.98%
Residual rate (%) 30 min [4]: 98.79%
Residual rate (%) 60 min [4]: 93.69%
Residual rate (%) 120 min [4]: 86.16%
half-life at 0.5 μM [4]: 8.88 h

C=CC(=O)N1C[C@H](C)N(c2nc(=O)n(-c3c(SC)ccnc3C(C)C)c3nc(-c4c(N)ccc(Cl)c4F)c(Cl)cc23)C[C@H]1C (single isomer, unassigned) [Embodiment 165-1]
Residual rate (%) 0 min [3]: 100.00%
Residual rate (%) 15 min [3]: 95.57%
Residual rate (%) 30 min [3]: 96.73%
Residual rate (%) 60 min [3]: 93.97%
Residual rate (%) 120 min [3]: 91.93%
half-life at 0.5 μM [3]: 19.3 h
Residual rate (%) 0 min [4]: 100.00%
Residual rate (%) 15 min [4]: 97.71%
Residual rate (%) 30 min [4]: 96.32%
Residual rate (%) 60 min [4]: 94.86%
Residual rate (%) 120 min [4]: 92.49%
half-life at 0.5 μM [4]: 19.6 h
IC50 [1]: 58.8 nM
IC50 [2, 6]: 4.7 nM
IC50 [2, 7]: 9.1 nM
Kp ([5]; exposure in tumor to exposure in plasma, read-out: Ratio (T/P)): 0.57
MRT ([5]; plasma, read-out: MRT (hr) Plasma): 0.9 h
half-life ([5]; plasma, read-out: T1/2 (hr) Plasma (converted)): 0.5 h
MRT ([5]; tumor, read-out: MRT (hr) Tumor): 1.5 h
half-life ([5]; tumor, read-out: T1/2 (hr) Tumor (converted)): 0.9 h
